{"source": "patent US8895592B2", "about": "“Compounds as cannabinoid receptor ligands” (priority 2008, dated 2014)", "key": {"human CB2 receptors": {"target": "human CB2 receptors (Homo sapiens (Human), UniProt P34972)", "sequence (P34972 whole entry)": "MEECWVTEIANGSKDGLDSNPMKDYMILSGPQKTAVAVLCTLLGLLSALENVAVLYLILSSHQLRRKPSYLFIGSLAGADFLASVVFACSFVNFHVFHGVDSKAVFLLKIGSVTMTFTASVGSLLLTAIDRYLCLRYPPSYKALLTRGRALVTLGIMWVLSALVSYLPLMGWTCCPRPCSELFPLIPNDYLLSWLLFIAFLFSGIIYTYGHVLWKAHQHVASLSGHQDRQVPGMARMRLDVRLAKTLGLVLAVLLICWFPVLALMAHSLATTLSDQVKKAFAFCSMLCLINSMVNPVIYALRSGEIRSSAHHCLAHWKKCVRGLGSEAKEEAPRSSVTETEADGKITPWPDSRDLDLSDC", "assay": "human CB2 radioligand binding assay ([3H]CP 55,940 competition)", "conditions": "HEK293 membranes, 0.5 nM [3H]CP 55,940", "experimental": "HEK293 cells stably expressing human CB2 receptors were grown until a confluent monolayer was formed. Briefly, the cells were harvested and homogenized in TE buffer (50 mM Tris-HCl, 1 mM MgCl2, and 1 mM EDTA) using a polytron for 2×10 second bursts in the presence of protease inhibitors, followed by centrifugation at 45,000×g for 20 minutes. The final membrane pellet was re-homogenized in storage buffer (50 mM Tris-HCl, 1 mM MgCl2, and 1 mM EDTA and 10% sucrose) and frozen at −78° C. until used. Saturation binding reactions were initiated by the addition of membrane preparation (protein concentration of 5 μg/well for human CB2) into wells of a deep well plate containing [^3H]CP 55,940 (120 Ci/mmol, a nonselective CB agonist commercially available from Tocris) in assay buffer (50 mM Tris, 2.5 mM EDTA, 5 mM MgCl2, and 0.5 mg/mL fatty acid free BSA, pH 7.4). After 90 min incubation at 30° C., binding reaction was terminated by the addition of 300 μL/well of cold assay buffer followed by rapid vacuum filtration through a UniFilter-96 GF/C filter plates (pre-soaked in 1 mg/mL BSA for 2 hours). The bound activity was counted in a TopCount using Microscint-20. Saturation experiments were conducted with twelve concentrations of [^3H]CP 55,940 ranging from 0.01 to 8 nM. Competition experiments were conducted with 0.5 nM [^3H]CP 55,940 and five concentrations (0.01 nM to 10 μM) of displacing ligands. The addition of 10 μM unlabeled CP 55,940 (Tocris, Ellisville, Mo.) was used to assess nonspecific binding."}, "rat CB2 receptors": {"target": "rat CB2 receptors (Rattus norvegicus (Rat), UniProt Q9QZN9)", "sequence (Q9QZN9 whole entry)": "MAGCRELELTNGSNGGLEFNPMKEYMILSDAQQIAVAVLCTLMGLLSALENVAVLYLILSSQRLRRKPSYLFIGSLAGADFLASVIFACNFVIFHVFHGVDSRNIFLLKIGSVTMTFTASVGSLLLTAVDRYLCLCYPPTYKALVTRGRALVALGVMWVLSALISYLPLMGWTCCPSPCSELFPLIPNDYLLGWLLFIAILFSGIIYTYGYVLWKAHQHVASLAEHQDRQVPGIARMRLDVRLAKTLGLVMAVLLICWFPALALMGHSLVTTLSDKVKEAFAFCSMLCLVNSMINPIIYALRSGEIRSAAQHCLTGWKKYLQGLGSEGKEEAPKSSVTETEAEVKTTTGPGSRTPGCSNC", "assay": "rat CB2 radioligand binding assay ([3H]CP 55,940 competition)", "conditions": "HEK293 membranes, 0.5 nM [3H]CP 55,940", "experimental": "HEK293 cells stably expressing rat CB2 receptors were grown until a confluent monolayer was formed. Briefly, the cells were harvested and homogenized in TE buffer (50 mM Tris-HCl, 1 mM MgCl2, and 1 mM EDTA) using a polytron for 2×10 second bursts in the presence of protease inhibitors, followed by centrifugation at 45,000×g for 20 minutes. The final membrane pellet was re-homogenized in storage buffer (50 mM Tris-HCl, 1 mM MgCl2, and 1 mM EDTA and 10% sucrose) and frozen at −78° C. until used. Saturation binding reactions were initiated by the addition of membrane preparation (protein concentration of 20 μg/well for rat CB2) into wells of a deep well plate containing [^3H]CP 55,940 (120 Ci/mmol, a nonselective CB agonist commercially available from Tocris) in assay buffer (50 mM Tris, 2.5 mM EDTA, 5 mM MgCl2, and 0.5 mg/mL fatty acid free BSA, pH 7.4). After 45 min incubation at 30° C., binding reaction was terminated by the addition of 300 μl/well of cold assay buffer followed by rapid vacuum filtration through a UniFilter-96 GF/C filter plates (pre-soaked in 1 mg/mL BSA for 2 hours). The bound activity was counted in a TopCount using Microscint-20. Saturation experiments were conducted with twelve concentrations of [^3H]CP 55,940 ranging from 0.01 to 8 nM. Competition experiments were conducted with 0.5 nM [^3H]CP 55,940 and five concentrations of displacing ligands selected from the range of 0.01 nM to 10 μM. The addition of 10 μM unlabeled CP 55,940 (Tocris, Ellisville, Mo.) was used to assess nonspecific binding."}}, "data": [{"smiles": "CC(C)Cn1cc(C(C)(C)C)s/c1=N\\C(=O)c1cc(C(F)(F)F)ccc1OCCn1ccnc1", "note": "[Example 6, N-[(2Z)-5-tert-butyl-3-isobutyl-1,3-thiazol-2(3H)-ylidene]-2-[2-(1H-imidazol-1-yl)ethoxy]-5-(trifluoromethyl)benzamide]", "values": [{"measurement": "Ki", "setting": "human CB2 receptors", "value": 96, "unit": "nM"}, {"measurement": "Ki", "setting": "rat CB2 receptors", "value": 39, "unit": "nM"}]}, {"smiles": "CC(C)Cn1cc(C(C)(C)C)s/c1=N\\C(=O)c1ccccc1OC[C@@H]1CCCN1C", "note": "[Example 10, N-[(2Z)-5-tert-butyl-3-isobutyl-1,3-thiazol-2(3H)-ylidene]-2-{[(2S)-1-methylpyrrolidin-2-yl]methoxy}benzamide]", "values": [{"measurement": "Ki", "setting": "human CB2 receptors", "value": 296, "unit": "nM"}, {"measurement": "Ki", "setting": "rat CB2 receptors", "value": 243, "unit": "nM"}]}, {"smiles": "CC(C)Cn1cc(C(C)(C)C)s/c1=N\\C(=O)c1cc(C(F)(F)F)ccc1O[C@H]1CCN(C)C1", "note": "[Example 13, N-[(2Z)-5-tert-butyl-3-isobutyl-1,3-thiazol-2(3H)-ylidene]-2-{[(3S)-1-methylpyrrolidin-3-yl]oxy}-5-(trifluoromethyl)benzamide]", "values": [{"measurement": "Ki", "setting": "human CB2 receptors", "value": 111, "unit": "nM"}, {"measurement": "Ki", "setting": "rat CB2 receptors", "value": 81, "unit": "nM"}]}, {"smiles": "CC(C)Cn1cc(C(C)(C)C)s/c1=N\\C(=O)c1cc(Cl)ccc1OC1CC1", "note": "[Example 15, N-[(2Z)-5-tert-butyl-3-isobutyl-1,3-thiazol-2(3H)-ylidene]-5-chloro-2-(cyclopropyloxy)benzamide]", "values": [{"measurement": "Ki", "setting": "human CB2 receptors", "value": 9.9, "unit": "nM"}, {"measurement": "Ki", "setting": "rat CB2 receptors", "value": 1.1, "unit": "nM"}]}, {"smiles": "CC(C)Cn1cc(C(C)(C)C)s/c1=N\\C(=O)c1cc(C#N)ccc1OC1CCC1", "note": "[Example 16, N-[(2Z)-5-tert-butyl-3-isobutyl-1,3-thiazol-2(3H)-ylidene]-5-cyano-2-(cyclobutyloxy)benzamide]", "values": [{"measurement": "Ki", "setting": "human CB2 receptors", "value": 96, "unit": "nM"}, {"measurement": "Ki", "setting": "rat CB2 receptors", "value": 5.2, "unit": "nM"}]}, {"smiles": "CC(C)(C)c1cn(CCC(F)(F)F)/c(=N/C(=O)c2cc(C#N)ccc2OC2CCC2)s1", "note": "[Example 17, N-[(2Z)-5-tert-butyl-3-(3,3,3-trifluoropropyl)-1,3-thiazol-2(3H)-ylidene]-5-cyano-2-(cyclobutyloxy)benzamide]", "values": [{"measurement": "Ki", "setting": "human CB2 receptors", "value": 53, "unit": "nM"}, {"measurement": "Ki", "setting": "rat CB2 receptors", "value": 1.1, "unit": "nM"}]}, {"smiles": "CCCCn1/c(=N/C(=O)c2cc(C(F)(F)F)ccc2OCCC(C)(C)O)sc2ccncc21", "note": "[Example 20, N-[(2Z)-3-butyl[1,3]thiazolo[4,5-c]pyridin-2(3H)-ylidene]-2-(3-hydroxy-3-methylbutoxy)-5-(trifluoromethyl)benzamide]", "values": [{"measurement": "Ki", "setting": "human CB2 receptors", "value": 35, "unit": "nM"}, {"measurement": "Ki", "setting": "rat CB2 receptors", "value": 48, "unit": "nM"}]}, {"smiles": "CCCCn1/c(=N/C(=O)c2cc(C(F)(F)F)ccc2ONC(C)(C)C)sc2ccncc21", "note": "[Example 22, 2-[(tert-butylamino)oxy]-N-[(2Z)-3-butyl[1,3]thiazolo[4,5-c]pyridin-2(3H)-ylidene]-5-(trifluoromethyl)benzamide]", "values": [{"measurement": "Ki", "setting": "human CB2 receptors", "value": 62, "unit": "nM"}, {"measurement": "Ki", "setting": "rat CB2 receptors", "value": 73, "unit": "nM"}]}, {"smiles": "CCCCn1cc(C(C)(C)C)s/c1=N\\C(=O)c1cc(C(F)(F)F)ccc1ONC(C)(C)C", "note": "[Example 23, 2-[(tert-butylamino)oxy]-N-[(2Z)-3-butyl-5-tert-butyl-1,3-thiazol-2(3H)-ylidene]-5-(trifluoromethyl)benzamide]", "values": [{"measurement": "Ki", "setting": "human CB2 receptors", "value": 6.7, "unit": "nM"}, {"measurement": "Ki", "setting": "rat CB2 receptors", "value": 0.95, "unit": "nM"}]}, {"smiles": "Cc1s/c(=N\\C(=O)c2cc(C(F)(F)F)ccc2OC[C@@H]2CCCN2C)n(CC2CC2)c1C", "note": "[Example 24, N-[(2Z)-3-(cyclopropylmethyl)-4,5-dimethyl-1,3-thiazol-2(3H)-ylidene]-2-{[(2S)-1-methylpyrrolidin-2-yl]methoxy}-5-(trifluoromethyl)benzamide]", "values": [{"measurement": "Ki", "setting": "human CB2 receptors", "value": 30, "unit": "nM"}, {"measurement": "Ki", "setting": "rat CB2 receptors", "value": 35, "unit": "nM"}]}, {"smiles": "CC(C)(O)COc1ccc(C(F)(F)F)cc1C(=O)/N=c1\\sc2ccncc2n1CC1CCC1", "note": "[Example 26, N-[(2Z)-3-(cyclobutylmethyl)[1,3]thiazolo[4,5-c]pyridin-2(3H)-ylidene]-2-(2-hydroxy-2-methylpropoxy)-5-(trifluoromethyl)benzamide]", "values": [{"measurement": "Ki", "setting": "human CB2 receptors", "value": 2.5, "unit": "nM"}, {"measurement": "Ki", "setting": "rat CB2 receptors", "value": 7.4, "unit": "nM"}]}, {"smiles": "CC(C)(O)COc1ccc(C(F)(F)F)cc1C(=O)/N=c1\\sc2ccncc2n1CCCC(F)(F)F", "note": "[Example 27, 2-(2-hydroxy-2-methylpropoxy)-N-[(2Z)-3-(4,4,4-trifluorobutyl)[1,3]thiazolo[4,5-c]pyridin-2(3H)-ylidene]-5-(trifluoromethyl)benzamide]", "values": [{"measurement": "Ki", "setting": "human CB2 receptors", "value": 8.4, "unit": "nM"}, {"measurement": "Ki", "setting": "rat CB2 receptors", "value": 10, "unit": "nM"}]}, {"smiles": "CCCCn1/c(=N/C(=O)c2cc(C(F)(F)F)ccc2OC[C@@H](C)O)sc2ccncc21", "note": "[Example 28, N-[(2Z)-3-butyl[1,3]thiazolo[4,5-c]pyridin-2(3H)-ylidene]-2-{[(2R)-2-hydroxypropyl]oxy}-5-(trifluoromethyl)benzamide]", "values": [{"measurement": "Ki", "setting": "human CB2 receptors", "value": 75, "unit": "nM"}, {"measurement": "Ki", "setting": "rat CB2 receptors", "value": 63, "unit": "nM"}]}, {"smiles": "C#CCCn1cc(C(C)(C)C)s/c1=N\\C(=O)c1cc(C(F)(F)F)ccc1ONC(C)(C)C", "note": "[Example 30, 2-[(tert-butylamino)oxy]-N-[(2Z)-5-tert-butyl-3-but-3-ynyl-1,3-thiazol-2(3H)-ylidene]-5-(trifluoromethyl)benzamide]", "values": [{"measurement": "Ki", "setting": "human CB2 receptors", "value": 15, "unit": "nM"}, {"measurement": "Ki", "setting": "rat CB2 receptors", "value": 0.75, "unit": "nM"}]}, {"smiles": "C=C=CCn1cc(C(C)(C)C)s/c1=N\\C(=O)c1cc(C(F)(F)F)ccc1ONC(C)(C)C", "note": "[Example 31, N-[(2Z)-3-buta-2,3-dienyl-5-tert-butyl-1,3-thiazol-2(3H)-ylidene]-2-[(tert-butylamino)oxy]-5-(trifluoromethyl)benzamide]", "values": [{"measurement": "Ki", "setting": "human CB2 receptors", "value": 17, "unit": "nM"}, {"measurement": "Ki", "setting": "rat CB2 receptors", "value": 1.7, "unit": "nM"}]}, {"smiles": "CCCCn1cc(C(C)(C)C)s/c1=N\\C(=O)c1cc(C(F)(F)F)ccc1OCC(C)(C)O", "note": "[Example 32, N-[(2Z)-3-butyl-5-tert-butyl-1,3-thiazol-2(3H)-ylidene]-2-(2-hydroxy-2-methylpropoxy)-5-(trifluoromethyl)benzamide]", "values": [{"measurement": "Ki", "setting": "human CB2 receptors", "value": 0.82, "unit": "nM"}, {"measurement": "Ki", "setting": "rat CB2 receptors", "value": 1.2, "unit": "nM"}]}, {"smiles": "CCCCn1/c(=N/C(=O)c2cc(C(F)(F)F)ccc2OC[C@@H]2CCCN2C)sc2ccncc21", "note": "[Example 33, N-[(2Z)-3-butyl[1,3]thiazolo[4,5-c]pyridin-2(3H)-ylidene]-2-{[(2S)-1-methylpyrrolidin-2-yl]methoxy}-5-(trifluoromethyl)benzamide]", "values": [{"measurement": "Ki", "setting": "human CB2 receptors", "value": 34, "unit": "nM"}, {"measurement": "Ki", "setting": "rat CB2 receptors", "value": 35, "unit": "nM"}]}, {"smiles": "CCCCn1c(C(=O)OC)c(C(C)C)s/c1=N\\C(=O)c1cc(C(F)(F)F)ccc1ONC(C)(C)C", "note": "[Example 34]", "values": [{"measurement": "Ki", "setting": "human CB2 receptors", "value": 129, "unit": "nM"}, {"measurement": "Ki", "setting": "rat CB2 receptors", "value": 48, "unit": "nM"}]}, {"smiles": "CCCCn1/c(=N/C(=O)c2cc(C(F)(F)F)ccc2OCC(C)(C)O)sc2ncccc21", "note": "[Example 35, N-[(2Z)-1-butyl[1,3]thiazolo[5,4-b]pyridin-2(1H)-ylidene]-2-(2-hydroxy-2-methylpropoxy)-5-(trifluoromethyl)benzamide]", "values": [{"measurement": "Ki", "setting": "human CB2 receptors", "value": 15, "unit": "nM"}, {"measurement": "Ki", "setting": "rat CB2 receptors", "value": 28, "unit": "nM"}]}, {"smiles": "CCCCn1/c(=N/C(=O)c2cc(C(F)(F)F)ccc2OC[C@H](C)O)sc2ncccc21", "note": "[Example 36, N-[(2Z)-1-butyl[1,3]thiazolo[5,4-b]pyridin-2(1H)-ylidene]-2-{[(2S)-2-hydroxypropyl]oxy}-5-(trifluoromethyl)benzamide]", "values": [{"measurement": "Ki", "setting": "human CB2 receptors", "value": 1.4, "unit": "nM"}, {"measurement": "Ki", "setting": "rat CB2 receptors", "value": 2.1, "unit": "nM"}]}, {"smiles": "CCCCn1cc(C(C)(C)C)s/c1=N\\C(=O)c1cc(C(F)(F)F)ccc1NNC(=O)c1cccnc1", "note": "[Example 37, N-[(2Z)-3-butyl-5-tert-butyl-1,3-thiazol-2(3H)-ylidene]-2-[2-(pyridin-3-ylcarbonyl)hydrazino]-5-(trifluoromethyl)benzamide]", "values": [{"measurement": "Ki", "setting": "human CB2 receptors", "value": 1.6, "unit": "nM"}, {"measurement": "Ki", "setting": "rat CB2 receptors", "value": 0.77, "unit": "nM"}]}, {"smiles": "CCCCn1cc(C(C)(C)C)s/c1=N\\C(=O)c1cc(C(F)(F)F)ccc1NNC(=O)c1ccncc1", "note": "[Example 38, N-[(2Z)-3-butyl-5-tert-butyl-1,3-thiazol-2(3H)-ylidene]-2-(2-isonicotinoylhydrazino)-5-(trifluoromethyl)benzamide]", "values": [{"measurement": "Ki", "setting": "human CB2 receptors", "value": 1.1, "unit": "nM"}, {"measurement": "Ki", "setting": "rat CB2 receptors", "value": 2.3, "unit": "nM"}]}]}
